Experimental data as given in patent US20260262643A1, “HERBICIDAL BENZOXAZINES” (FMC CORPORATION, priority 2022, published 2026).

What was measured:
oat, wild [1] = assay: Test C preemergence; format: in vivo, Avena fatua
How it was run: (§1)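 Seeds sown in loam soil–sand blend received a directed preemergence soil spray of test chemical in non-phytotoxic solvent with surfactant; postemergence plants (2–10 cm, one- to two-leaf stage) were sprayed with the same formulation. Greenhouse-held 10 days, then visually rated for injury versus untreated controls, 0 (no effect) to 100 (complete control).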

soybean [2] = assay: Test C postemergence; format: in vivo, Glycine max; conditions: 10 days, 0 to 100 scale (0 no effect, 100 complete control)
How it was run: as §1

soybean [3] = assay: Test C preemergence; format: in vivo, Glycine max
How it was run: as §1

horseweed = assay: Test C postemergence; format: in vivo, Erigeron canadensis; conditions: 10 days, 0 to 100 scale (0 no effect, 100 complete control)
How it was run: as §1

kochia [4] = assay: Test C postemergence; format: in vivo, Bassia scoparia; conditions: 10 days, 0 to 100 scale (0 no effect, 100 complete control)
How it was run: as §1

corn [5] = assay: Test C preemergence; format: in vivo, Zea mays
How it was run: as §1

pigweed, palmer [6] = assay: Test C postemergence; format: in vivo, Amaranthus palmeri; conditions: 10 days, 0 to 100 scale (0 no effect, 100 complete control)
How it was run: as §1

blackgrass [7] = assay: Test C postemergence; format: in vivo, Alopecurus myosuroides; conditions: 10 days, 0 to 100 scale (0 no effect, 100 complete control)
How it was run: as §1

barnyardgrass [8] = assay: Test C preemergence; format: in vivo, Echinochloa crusgalli
How it was run: as §1

wheat [9] = assay: Test C postemergence; format: in vivo, Triticum aestivum; conditions: 10 days, 0 to 100 scale (0 no effect, 100 complete control)
How it was run: as §1

corn [10] = assay: Test C postemergence; format: in vivo, Zea mays; conditions: 10 days, 0 to 100 scale (0 no effect, 100 complete control)
How it was run: as §1

ryegrass, Italian [11] = assay: Test C postemergence; format: in vivo, Lolium multiflorum; conditions: 10 days, 0 to 100 scale (0 no effect, 100 complete control)
How it was run: as §1

rice = assay: Test D flooded paddy test; format: in vivo, Oryza sativa; conditions: 250 g ai/ha, applied to paddy water, visual rating after 13 to 14 days, scale 0 to 100 (0 no effect, 100 complete control)
How it was run: (§2)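 Plants grown to the 2-leaf stage; pots flooded to 3 cm above soil at treatment and held at that depth throughout. Test compounds applied directly to the paddy water. After 13 to 14 days in a greenhouse, response was rated visually versus controls on a 0 (no effect) to 100 (complete control) scale.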

foxtail, giant [12] = assay: Test C postemergence; format: in vivo, Setaria faberi; conditions: 10 days, 0 to 100 scale (0 no effect, 100 complete control)
How it was run: as §1

barnyardgrass [13] = assay: Test C postemergence; format: in vivo, Echinochloa crusgalli; conditions: 10 days, 0 to 100 scale (0 no effect, 100 complete control)
How it was run: as §1

kochia [14] = assay: Test C preemergence; format: in vivo, Bassia scoparia
How it was run: as §1

blackgrass [15] = assay: Test C preemergence; format: in vivo, Alopecurus myosuroides
How it was run: as §1

barnyardgrass [16] = assay: Test D flooded paddy test; format: in vivo, Echinochloa crus-galli; conditions: 250 g ai/ha, applied to paddy water, visual rating after 13 to 14 days, scale 0 to 100 (0 no effect, 100 complete control)
How it was run: as §2

foxtail, giant [17] = assay: Test C preemergence; format: in vivo, Setaria faberi
How it was run: as §1

pigweed, palmer [18] = assay: Test C preemergence; format: in vivo, Amaranthus palmeri
How it was run: as §1

ducksalad = assay: Test D flooded paddy test; format: in vivo, Heteranthera limosa; conditions: 250 g ai/ha, applied to paddy water, visual rating after 13 to 14 days, scale 0 to 100 (0 no effect, 100 complete control)
How it was run: as §2

galium = assay: Test C postemergence; format: in vivo, Galium aparine; conditions: 10 days, 0 to 100 scale (0 no effect, 100 complete control)
How it was run: as §1

ragweed [19] = assay: Test C postemergence; format: in vivo, Ambrosia artemisiifolia; conditions: 10 days, 0 to 100 scale (0 no effect, 100 complete control)
How it was run: as §1

oat, wild [20] = assay: Test C postemergence; format: in vivo, Avena fatua; conditions: 10 days, 0 to 100 scale (0 no effect, 100 complete control)
How it was run: as §1

ryegrass, Italian [21] = assay: Test C preemergence; format: in vivo, Lolium multiflorum
How it was run: as §1

sedge, umbrella = assay: Test D flooded paddy test; format: in vivo, Cyperus difformis; conditions: 250 g ai/ha, applied to paddy water, visual rating after 13 to 14 days, scale 0 to 100 (0 no effect, 100 complete control)
How it was run: as §2

wheat [22] = assay: Test C preemergence; format: in vivo, Triticum aestivum
How it was run: as §1

ragweed [23] = assay: Test C preemergence; format: in vivo, Ambrosia artemisiifolia
How it was run: as §1

[24] = 500 g ai/ha, preemergence, 0 to 100 scale (0 no effect, 100 complete control)
[25] = Preemergence, 125 g ai/ha, 0 to 100 scale, 0 no effect, 100 complete control

CCc1cc(C(=O)N2C[C@H](C)Oc3c(Cl)cccc32)cc(-n2cncn2)c1 [Compound 332]
Oat, Wild plant response rating (oat, wild [1]; [24]): 30 | Plant response rating, Oat, Wild (oat, wild [1]; [25]): 30 | Plant response rating, Soybean (soybean [2]; 500 g ai/ha, postemergence): 100 | Plant response rating, Soybean (soybean [2]; Postemergence, 125 g ai/ha): 90 | Soybean plant response rating (soybean [3]; [24]): 0 | Plant response rating, Soybean (soybean [3]; [25]): 0 | Plant response rating, Horseweed (horseweed; 500 g ai/ha, postemergence): 0 | Plant response rating, Horseweed (horseweed; Postemergence, 125 g ai/ha): 0 | Plant response rating, Kochia (kochia [4]; 500 g ai/ha, postemergence): 60 | Plant response rating, Kochia (kochia [4]; Postemergence, 125 g ai/ha): 10 | Corn plant response rating (corn [5]; [24]): 20 | Plant response rating, Corn (corn [5]; [25]): 20 | Plant response rating, Pigweed, Palmer (pigweed, palmer [6]; 500 g ai/ha, postemergence): 70 | Plant response rating, Pigweed, Palmer (pigweed, palmer [6]; Postemergence, 125 g ai/ha): 70 | Plant response rating, Blackgrass (blackgrass [7]; 500 g ai/ha, postemergence): 70 | Plant response rating, Blackgrass (blackgrass [7]; Postemergence, 125 g ai/ha): 30 | Barnyardgrass plant response rating (barnyardgrass [8]; [24]): 90 | Plant response rating, Barnyardgrass (barnyardgrass [8]; [25]): 50 | Plant response rating, Wheat (wheat [9]; 500 g ai/ha, postemergence): 20 | Plant response rating, Wheat (wheat [9]; Postemergence, 125 g ai/ha): 20 | Plant response rating, Corn (corn [10]; 500 g ai/ha, postemergence): 30 | Plant response rating, Corn (corn [10]; Postemergence, 125 g ai/ha): 30 | Plant response rating, Ryegrass, Italian (ryegrass, Italian [11]; 500 g ai/ha, postemergence): 70 | Plant response rating, Ryegrass, Italian (ryegrass, Italian [11]; Postemergence, 125 g ai/ha): 60 | Plant response rating, Rice (Flood) (rice): 0 | Plant response rating, Foxtail, Giant (foxtail, giant [12]; 500 g ai/ha, postemergence): 90 | Plant response rating, Foxtail, Giant (foxtail, giant [12]; Postemergence, 125 g ai/ha): 40 | Plant response rating, Barnyardgrass (barnyardgrass [13]; 500 g ai/ha, postemergence): 70 | Plant response rating, Barnyardgrass (barnyardgrass [13]; Postemergence, 125 g ai/ha): 40 | Kochia plant response rating (kochia [14]; [24]): 50 | Plant response rating, Kochia (kochia [14]; [25]): 0 | Blackgrass plant response rating (blackgrass [15]; [24]): 80 | Plant response rating, Blackgrass (blackgrass [15]; [25]): 80 | Plant response rating, Barnyardgrass (Flood) (barnyardgrass [16]): 0 | Foxtail, Giant plant response rating (foxtail, giant [17]; [24]): 100 | Plant response rating, Foxtail, Giant (foxtail, giant [17]; [25]): 70 | Pigweed, Palmer plant response rating (pigweed, palmer [18]; [24]): 100 | Plant response rating, Pigweed, Palmer (pigweed, palmer [18]; [25]): 20 | Plant response rating, Ducksalad (Flood) (ducksalad): 0 | Plant response rating, Galium (galium; 500 g ai/ha, postemergence): 100 | Plant response rating, Galium (galium; Postemergence, 125 g ai/ha): 70 | Plant response rating, Ragweed (ragweed [19]; 500 g ai/ha, postemergence): 20 | Plant response rating, Ragweed (ragweed [19]; Postemergence, 125 g ai/ha): 0 | Plant response rating, Oat, Wild (oat, wild [20]; 500 g ai/ha, postemergence): 30 | Plant response rating, Oat, Wild (oat, wild [20]; Postemergence, 125 g ai/ha): 10 | Ryegrass, Italian plant response rating (ryegrass, Italian [21]; [24]): 90 | Plant response rating, Ryegrass, Italian (ryegrass, Italian [21]; [25]): 60 | Plant response rating, Sedge, Umbrella (Flood) (sedge, umbrella): 0 | Wheat plant response rating (wheat [22]; [24]): 0 | Plant response rating, Wheat (wheat [22]; [25]): 0 | Ragweed plant response rating (ragweed [23]; [24]): 0 | Plant response rating, Ragweed (ragweed [23]; [25]): 0
